# Like-named read-outs stand apart in the source and are kept apart here. Marks after values point to notes of the source that are not given here.
# How the values were obtained:
# human stomach = conditions: healthy volunteers, doses prescribed for osteoporosis and Pagets disease of bone; cited from earlier work
# [1] = tested on: neonatal murine calvarial incubation media; conditions: mean ± standard error (n=5)
# Procedure: (§1) An assay for bone resorption or bone formation is similar to that described by Gowen M. & Mundy G., J Immunol (1986) 136:2478-82. Briefly, four days after birth, the front and parietal bones of ICR Swiss white mouse pups are removed by microdissection and split along the sagittal suture. […] The medium used when the assay is conducted to assess bone formation is Fitton and Jackson Modified BGJ Medium (Sigma) supplemented with 6 ug/ml insulin, 6 ug/ml transferrin, 6 ng/ml selenous acid, calcium and phosphate concentrations of 1.25 and 3.0 mM, respectively, and ascorbic acid to a concentration of 100 ug/ml is added every two days. The incubation is conducted at 37° C. in a humidified atmosphere of 5% CO2 and 95% air for 96 hours.
# These neonatal murine calvaria do contain measurable levels of alkaline phosphatase and this can be measured either from the calvaria itself or to some degree in the incubation media as a semi-quantitative measurement of bone formation activity. For measurement of alkaline phosphatase activity in the media, 50 ul is removed at the end of the assay. The activity is then measured using standard alkaline phosphatase reagents.
# Alkaline phosphatase activity is measured in the incubation media as detailed described above in “Techniques for Neonatal Mouse Calvaria Assay (in vitro)).
# [2] = tested on: Neonatal Murine Calvariae; conditions: mean ± standard error (n=5)
# Procedure: as §1
# The bones are removed from the incubation media and fixed in 10% buffered formalin for 24-48 hours, decalcified in 14% EDTA for 1 week, processed through graded alcohols; and embedded in paraffin wax. Three μm sections of the calvaria are prepared. Representative sections are selected for histomorphometric assessment of bone formation or bone resorption. Bone changes are measured on sections cut 200 μm apart. Osteoblasts and osteoclasts are identified by their distinctive morphology.
# Selected compounds and appropriate controls were assayed in vitro (ex vivo) for bone formation activity (described above in “Techniques for Neonatal Mouse Calvaria Assay (in vitro)). Histomorphometrical assessments of ex vivo calvaria were carried out using an OsteoMetrics bone morphometry measurement program, according to the manufacturer's instructions. Measurements were determined using either a 10- or 20-fold objective with a standard point counting eyepiece graticule.
# New bone formation was determined (using a 20× objective) by measuring the new bone area formed in one field in 3 representative sections of each bone (4 bones per group). Each measurement was carried out ½ field distance from the end of the suture. Both total bone and old bone area were measured. Data were expressed as new bone width in mm.
# Osteoblast numbers are determined by point counting. The number of osteoblast cells lining the bone surface on both sides of the bone are counted in one field using a 20× objective. Data are expressed as osteoblast numbers/mm of bone surface.
Compound,injury to the stomach (human stomach),Alkaline Phosphatase OD ([1]; 0.1 uM),Alkaline Phosphatase OD ([1]; 1 uM),Alkaline Phosphatase OD ([1]; 10 uM),Alkaline Phosphatase OD ([1]; 100 uM),Cell Number/0.3 mm bone ([2]; 0.1 uM),New Bone Area ([2]; 0.1 uM),Cell Number/0.3 mm bone ([2]; 1 uM),New Bone Area ([2]; 1 uM),Cell Number/0.3 mm bone ([2]; 10 uM),New Bone Area ([2]; 10 uM),Cell Number/0.3 mm bone ([2]; 100 uM),New Bone Area ([2]; 100 uM)
"NCCCC(O)(P(=O)(O)O)P(=O)(O)O [Alendronate, (4-animo-1-hydroxybutylidene)bis-phosphonate]",cause erosions and ulcers in the human stomach,0.030 ± 0.009 OD,0.031 ± 0.010 OD,0.034 ± 0.001 OD,0.038 ± 0.003 OD,98± 6 /0.3 mm bone,2.9 ± 0.1 mm^2 × 10^−3,103± 4 /0.3 mm bone,3.2 ± 0.5 mm^2 × 10^−3,101± 5 /0.3 mm bone,2.7 ± 0.2 mm^2 × 10^−3,97± 3 /0.3 mm bone,3.1 ± 0.3 mm^2 × 10^−3
"O=C(NCCCC(O)(P(=O)(O)O)P(=O)(O)O)c1ccc(CO[N+](=O)[O-])cc1 [NOX-Alendronate, [4-(4′-nitrooxymethyl)benzoylamino-1-hydroxybutylidene]-bis-phosphonate]",–,0.029 ± 0.007 OD,0.023 ± 0.001 OD,0.053 ± 0.007 OD,0.072 ± 0.003 OD,104 ± 8 /0.3 mm bone,3.6 ± 0.6 mm^2 × 10^−3,115 ± 5 /0.3 mm bone,4.2 ± 0.4 mm^2 × 10^−3,132 ± 5 /0.3 mm bone,6.7 ± 0.7* mm^2 × 10^−3,124 ± 2 /0.3 mm bone,5.4 ± 0.3* mm^2 × 10^−3

# From patent publication US7288535B2, “Methods and compositions for stimulating bone growth using nitric oxide releasing bisphosphonate conjugates” (OsteoScreen, Inc., priority 2002, dated 2007)
